Assay results reported in patent US6472348B1, “Pyridone derivatives and herbicides” (Kumiai Chemical Industry Co., Ltd., priority 1996, dated 2002).

Key:
Format in all cases: in vivo
[1] = tested on: slender amaranth (Am); test: Test Example 7: crop plant selectivity by upland field soil treatment (corn), herbicidal effects; parameters: scale not given here; details: dose 6.3 g ai/10a, 21st day after application
Description: (§1) (Test on Crop Plant Selectivity by Upland Field Soil Treatment)
(§2) In a plastic pot (surface area: 600 cm^2) filled with sand, corn (Ze), green foxtail (Se), pale smartweed (Po), slender amaranth (Am), common lambsquarters (Ch) and China jute (Ab) were sown and covered with soil. […] The plants were then cultured in a green house, and the evaluation of the herbicidal effects and phytotoxicity was conducted on the 21st day after the application in accordance with the standards as identified in Table 47.

[2] = tested on: China jute (Ab); test: as above; parameters: scale not given here; details: dose 6.3 g ai/10a, 21st day after application
Description: as §1, §2

[3] = tested on: pale smartweed (Po); test: as above; parameters: scale not given here; details: dose 6.3 g ai/10a, 21st day after application
Description: as §1, §2

[4] = tested on: common lambsquarters (Ch); test: as above; parameters: scale not given here; details: dose 6.3 g ai/10a, 21st day after application
Description: as §1, §2

[5] = tested on: green foxtail (Se); test: as above; parameters: scale not given here; details: dose 6.3 g ai/10a, 21st day after application
Description: as §1, §2

[6] = tested on: cotton (Go); test: Test Example 4: crop plant selectivity by upland field soil treatment (cotton), phytotoxicity; parameters: scale not given here; details: dose 6.3 g ai/10 a, evaluated 21st day after application
Description: as §1
(§3) In a plastic pot (surface area: 600 cm^2) filled with sand, cotton (Go), Diaitaria ciliaris (Di), green foxtail (Se), pale smartweed (Po), slender amaranth (Am), common lambsquarters (Ch) and China jute (Ab) were sown and covered with soil. […] The plants were then cultured in a green house, and the evaluation of the herbicidal effects and phytotoxicity was conducted on the 21st day after the application in accordance with the standards as identified in Table 47. Symbol—represents “not tested”.

[7] = tested on: barnyardgrass (Ec); test: Test Example 2: herbicidal effects by upland field soil treatment; details: 100 g of the active ingredient per 10 ares;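 further: grade of growth control; 5 = at least 90%; 4 = 70 to 90%; 3 = 50 to 70%; 2 = 30 to 50%; 1 = 10 to 30%; 0 = under 10%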
Source text: (§4) (Test on Herbicidal Effects by Upland Field Soil Treatment)

[8] = tested on: rice flatsedge (Ci); test: as above; details: 100 g of the active ingredient per 10 ares
Source text: as §4

[9] = tested on: slender amaranth (Am); test: as above; details: 100 g of the active ingredient per 10 ares
Source text: as §4

[10] = tested on: pale smartweed (Po); test: as above; details: 100 g of the active ingredient per 10 ares
Source text: as §4

[11] = tested on: Digitaria ciliaris (Di); test: as above; details: 100 g of the active ingredient per 10 ares;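 further: grade of growth control; 5 = at least 90%; 4 = 70 to 90%; 3 = 50 to 70%; 2 = 30 to 50%; 1 = 10 to 30%; 0 = under 10%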
Source text: as §4

[12] = tested on: common lambsquarters (Ch); test: as above; details: 100 g of the active ingredient per 10 ares
Source text: as §4

[13] = tested on: barnyardgrass (Ec); test: Test Example 3: herbicidal effects by upland field foliage treatment; parameters: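 grade of growth control; 5 = at least 90%; 4 = 70 to 90%; 3 = 50 to 70%; 2 = 30 to 50%; 1 = 10 to 30%; 0 = under 10%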; details: 100 g of the active ingredient per 10 ares, evaluated on the 14th day after treatment
How it was run: (§5)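 Test plants had been raised from seed for 2 weeks in a greenhouse, in soil-covered sand pots of 120 cm^2, and were returned there after spraying.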

[14] = tested on: rice flatsedge (Ci); test: as above; parameters: scale not given here; details: 100 g of the active ingredient per 10 ares, evaluated on the 14th day after treatment
How it was run: as §5

[15] = tested on: slender amaranth (Am); test: as above; parameters: scale not given here; details: 100 g of the active ingredient per 10 ares, evaluated on the 14th day after treatment
How it was run: as §5

[16] = tested on: Diaitaria ciliaris (Di); test: as above; parameters: scale not given here; details: 100 g of the active ingredient per 10 ares, evaluated on the 14th day after treatment
How it was run: as §5

[17] = tested on: pale smartweed (Po); test: as above; parameters: scale not given here; details: 100 g of the active ingredient per 10 ares, evaluated on the 14th day after treatment
How it was run: as §5

[18] = tested on: common lambsquarters (Ch); test: as above; parameters: scale not given here; details: 100 g of the active ingredient per 10 ares, evaluated on the 14th day after treatment
How it was run: as §5

[19] = tested on: slender amaranth (Am); test: Test Example 4: crop plant selectivity by upland field soil treatment (cotton), herbicidal effects; parameters: scale not given here; details: dose 6.3 g ai/10 a, evaluated 21st day after application
Description: as §1, §3

[20] = tested on: China jute (Ab); test: as above; parameters: scale not given here; details: dose 6.3 g ai/10 a, evaluated 21st day after application
Description: as §1, §3

[21] = tested on: pale smartweed (Po); test: as above; parameters: scale not given here; details: dose 6.3 g ai/10 a, evaluated 21st day after application
Description: as §1, §3

[22] = tested on: common lambsquarters (Ch); test: as above; parameters: scale not given here; details: dose 6.3 g ai/10 a, evaluated 21st day after application
Description: as §1, §3

[23] = tested on: green foxtail (Se); test: as above; parameters: scale not given here; details: dose 6.3 g ai/10 a, evaluated 21st day after application
Description: as §1, §3

[24] = tested on: barnyardgrass (Ec); test: Test Example 1: herbicidal effects by paddy field soil treatment; details: 100 g of the active ingredient per 10 ares, 21st day after the application, index 0-5 of Table 47;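 further: grade of growth control; 5 = at least 90%; 4 = 70 to 90%; 3 = 50 to 70%; 2 = 30 to 50%; 1 = 10 to 30%; 0 = under 10%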
How it was run: (§6)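 Herbicidal effect was scored against a graded standard 21 days after treatment. Seeds were sown in puddled, leveled paddy soil flooded to 3 cm depth, and the active ingredient was applied at 100 g per 10 ares before greenhouse culture.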

[25] = tested on: bulrush (Sc); test: as above; details: 100 g of the active ingredient per 10 ares, 21st day after the application, index 0-5 of Table 47;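 further: grade of growth control; 5 = at least 90%; 4 = 70 to 90%; 3 = 50 to 70%; 2 = 30 to 50%; 1 = 10 to 30%; 0 = under 10%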
How it was run: as §6

[26] = tested on: monochoria (Mo); test: as above; details: 100 g of the active ingredient per 10 ares, 21st day after the application, index 0-5 of Table 47
How it was run: as §6

[27] = tested on: corn (Ze); test: Test Example 7: crop plant selectivity by upland field soil treatment (corn), phytotoxicity; parameters: scale not given here; details: dose 6.3 g ai/10a, 21st day after application
Description: as §1, §2

[28] = tested on: soybean (Gl); test: Test Example 6: crop plant selectivity by upland field soil treatment (soybean), phytotoxicity; parameters: scale not given here; details: dose 6.3 g ai/10a, 21st day after application
Description: as §1
(§7) In a plastic pot (surface area: 600 cm^2) filled with sand, soybean (Gl), Diaitaria ciliaris (Di), green foxtail (Se), Johnsongrass (So), pale smartweed (Po), slender amaranth (Am), common lambsquarters (Ch) and China jute (Ab) were sown and covered with soil. […] The plants were then cultured in a green house, and the evaluation of the herbicidal effects and phytotoxicity was conducted on the 21st day after the application in accordance with the standards as identified in Table 47. Symbol—represents “not tested”.

[29] = tested on: slender amaranth (Am); test: Test Example 6: crop plant selectivity by upland field soil treatment (soybean), herbicidal effects; parameters: scale not given here; details: dose 6.3 g ai/10a, 21st day after application
Description: as §1, §7

[30] = tested on: China jute (Ab); test: as above; parameters: scale not given here; details: dose 6.3 g ai/10a, 21st day after application
Description: as §1, §7

[31] = tested on: pale smartweed (Po); test: as above; parameters: scale not given here; details: dose 6.3 g ai/10a, 21st day after application
Description: as §1, §7

[32] = tested on: common lambsquarters (Ch); test: as above; parameters: scale not given here; details: dose 6.3 g ai/10a, 21st day after application
Description: as §1, §7

[33] = tested on: green foxtail (Se); test: as above; parameters: scale not given here; details: dose 6.3 g ai/10a, 21st day after application
Description: as §1, §7

[34] = tested on: slender amaranth (Am); test: Test Example 5: crop plant selectivity by upland field soil treatment (wheat), herbicidal effects; parameters: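 grade of growth control; 5 = at least 90%; 4 = 70 to 90%; 3 = 50 to 70%; 2 = 30 to 50%; 1 = 10 to 30%; 0 = under 10%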; details: dose 1.6 g ai/10a, 21st day after application
Description: as §1
(§8) In a plastic pot (surface area: 600 cm^2) filled with sand, wheat (Tr), Diaitaria ciliaris (Di), green foxtail (Se), pale smartweed (Po), slender amaranth (Am), common lambsquarters (Ch) and China jute (Ab) were sown and covered with soil. […] The plants were then cultured in a green house, and the evaluation of the herbicidal effects and phytotoxicity was conducted on the 21st day after the application in accordance with the standards as identified in Table 47. Symbol—represents “not tested”.

[35] = tested on: pale smartweed (Po); test: as above; parameters: scale not given here; details: dose 1.6 g ai/10a, 21st day after application
Description: as §1, §8

[36] = tested on: common lambsquarters (Ch); test: as above; parameters: scale not given here; details: dose 1.6 g ai/10a, 21st day after application
Description: as §1, §8

[37] = tested on: green foxtail (Se); test: as above; parameters: scale not given here; details: dose 1.6 g ai/10a, 21st day after application
Description: as §1, §8

[38] = tested on: wheat (Tr); test: Test Example 5: crop plant selectivity by upland field soil treatment (wheat), phytotoxicity; parameters: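 grade of crop injury; 5 = at least 90%; 4 = 70 to 90%; 3 = 50 to 70%; 2 = 30 to 50%; 1 = 10 to 30%; 0 = under 10%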; details: dose 1.6 g ai/10a, 21st day after application
Description: as §1, §8

[39] = 21st day after the application, index 0-5 of Table 47
[40] = evaluated on the 21st day after application

CCOc1cc(-c2ccc(C(F)(F)F)n(C)c2=O)c(F)cc1Cl [1-150]
Herbicidal effects Am [1]: 5
Herbicidal effects Ab [2]: 5
Herbicidal effects Po [3]: 5
Herbicidal effects Ch [4]: 5
Herbicidal effects Se [5]: 5
Phytotoxicity Go [6]: 0
Herbicidal effects Ec [7, 39]: 5
Herbicidal effects Ci [8, 39]: 5
Herbicidal effects Am [9, 39]: 5
Herbicidal effects Po [10, 39]: 5
Herbicidal effects Di [11, 39]: 5
Herbicidal effects Ch [12, 39]: 5
Herbicidal effects Ec [13]: 5
Herbicidal effects Ci [14]: 5
Herbicidal effects Am [15]: 5
Herbicidal effects Di [16]: 5
Herbicidal effects Po [17]: 5
Herbicidal effects Ch [18]: 5
Herbicidal effects Am [19]: 5
Herbicidal effects Ab [20]: 5
Herbicidal effects Po [21]: 5
Herbicidal effects Ch [22]: 5
Herbicidal effects Se [23]: 5
Herbicidal effects Ec [24]: 5
Herbicidal effects Sc [25]: 5
Herbicidal effects Mo [26]: 5
Phytotoxicity Ze [27]: 1
Phytotoxicity Gl [28]: 1
Herbicidal effects Am [29]: 5
Herbicidal effects Ab [30]: 5
Herbicidal effects Po [31]: 5
Herbicidal effects Ch [32]: 5
Herbicidal effects Se [33]: 5

CCCOc1cc(-c2ccc(C(F)(F)F)n(C)c2=O)c(F)cc1Cl [1-154]
Herbicidal effects Am [1]: 5
Herbicidal effects Ab [2]: 5
Herbicidal effects Po [3]: 5
Herbicidal effects Ch [4]: 5
Herbicidal effects Se [5]: 5
Herbicidal effects Am [34]: 5
Herbicidal effects Po [35]: 5
Herbicidal effects Ch [36]: 5
Herbicidal effects Se [37]: 5
Phytotoxicity Tr [38]: 1
Phytotoxicity Go [6]: 0
Herbicidal effects Ec [7, 39]: 5
Herbicidal effects Ci [8, 39]: 5
Herbicidal effects Am [9, 39]: 5
Herbicidal effects Po [10, 39]: 5
Herbicidal effects Di [11, 39]: 5
Herbicidal effects Ch [12, 39]: 5
Herbicidal effects Ec [13]: 5
Herbicidal effects Ci [14]: 5
Herbicidal effects Am [15]: 5
Herbicidal effects Di [16]: 5
Herbicidal effects Po [17]: 5
Herbicidal effects Ch [18]: 5
Herbicidal effects Am [19]: 5
Herbicidal effects Ab [20]: 5
Herbicidal effects Po [21]: 5
Herbicidal effects Ch [22]: 5
Herbicidal effects Se [23]: 5
Herbicidal effects Ec [24]: 5
Herbicidal effects Sc [25]: 5
Herbicidal effects Mo [26]: 5
Phytotoxicity Ze [27]: 1
Phytotoxicity Gl [28]: 1
Herbicidal effects Am [29]: 5
Herbicidal effects Ab [30]: 5
Herbicidal effects Po [31]: 5
Herbicidal effects Ch [32]: 5
Herbicidal effects Se [33]: 5

Cn1c(C(F)(F)F)ccc(-c2cc(OCCF)c(Cl)cc2F)c1=O [1-172]
Herbicidal effects Am [1]: 5
Herbicidal effects Ab [2]: 5
Herbicidal effects Po [3]: 5
Herbicidal effects Ch [4]: 5
Herbicidal effects Se [5]: 5
Phytotoxicity Go [6]: 1
Herbicidal effects Ec [7, 40]: 5
Herbicidal effects Ci [8, 40]: 5
Herbicidal effects Am [9, 40]: 5
Herbicidal effects Po [10, 40]: 5
Herbicidal effects Di [11, 40]: 5
Herbicidal effects Ch [12, 40]: 5
Herbicidal effects Ec [13]: 5
Herbicidal effects Ci [14]: 5
Herbicidal effects Am [15]: 5
Herbicidal effects Di [16]: 5
Herbicidal effects Po [17]: 5
Herbicidal effects Ch [18]: 5
Herbicidal effects Am [19]: 5
Herbicidal effects Ab [20]: 5
Herbicidal effects Po [21]: 5
Herbicidal effects Ch [22]: 5
Herbicidal effects Se [23]: 5
Herbicidal effects Ec [24]: 5
Herbicidal effects Sc [25]: 5
Herbicidal effects Mo [26]: 5
Phytotoxicity Ze [27]: 2
